The test deals with Cannabinoid receptor 2 (Homo sapiens, UniProt P34972). As to the kind of experiment: Inhibition of [3H]CP-55940 binding to human recombinant CB2 receptor in CHO cells.
Chain of Cannabinoid receptor 2 (P34972 whole entry): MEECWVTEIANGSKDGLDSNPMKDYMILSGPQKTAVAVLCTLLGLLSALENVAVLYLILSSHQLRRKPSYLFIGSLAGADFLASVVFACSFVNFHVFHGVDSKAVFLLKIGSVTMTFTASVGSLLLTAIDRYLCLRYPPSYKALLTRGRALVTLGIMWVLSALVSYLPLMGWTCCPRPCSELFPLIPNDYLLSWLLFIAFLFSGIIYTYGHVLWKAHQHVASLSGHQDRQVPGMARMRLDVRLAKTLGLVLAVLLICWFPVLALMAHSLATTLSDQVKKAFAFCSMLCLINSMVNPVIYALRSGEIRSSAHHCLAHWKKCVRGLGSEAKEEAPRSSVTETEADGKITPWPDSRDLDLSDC

On to `C[C@H](NC(=O)C(C)(C)Oc1ccc(Cl)cc1)[C@@H](Cc1ccc(Cl)cc1)c1ccc(Cl)cc1` [(1S,2S)N-[2,3-bis(4-chlorophenyl)-1-methylpropyl]-2-(4-chlorophenyloxy)-2-methylpropanamide], for which the half-maximal inhibitory concentration (IC50) was > 2000 nM. On to `C[C@H](NC(=O)C(C)(C)Oc1cc(F)cc(F)c1)[C@@H](Cc1ccc(Cl)cc1)c1ccccc1` [N-((2S,3S)-4-(4-chlorophenyl)-3-phenylbutan-2-yl)-2-(3,5-difluorophenoxy)-2-methylpropanamide], for which the IC50 was found to be 200 nM.

Consider `C[C@H](NC(=O)C(C)(C)Oc1ccc(C(F)(F)F)cn1)[C@@H](Cc1ccc(Cl)cc1)c1ccccc1` [N-((2S,3S)-4-(4-chlorophenyl)-3-phenylbutan-2-yl)-2-methyl-2-(5-(trifluoromethyl)pyridin-2-yloxy)propanamide], for which the IC50 was 140 nM. Take `C[C@H](NC(=O)C(C)(C)Oc1ccccc1)[C@@H](Cc1ccc(Cl)cc1)c1ccccc1` [N-((2S,3S)-4-(4-chlorophenyl)-3-phenylbutan-2-yl)-2-methyl-2-phenoxypropanamide]: the IC50 stood at 450 nM. With `CC(NC(=O)C(C)(C)Oc1ccc(Cl)cc1)C(Cc1ccc(Cl)cc1)c1ccc(Cl)cc1` (stereo not given) [N-[2,3-bis(4-chlorophenyl)-1-methylpropyl]-2-(4-chlorophenyloxy)-2-methylpropanamide] the figure was 1100 nM. As for `CC(NC(=O)C(C)(C)Oc1ccc(Cl)cc1)C(Cc1ccc(Cl)cc1)c1ccccc1` (stereo not given) [N-[3-(4-chlorophenyl)-1-methyl-2-phenylpropyl]-2-(4-chlorophenyloxy)-2-methylpropanamide], the half-inhibitory concentration (IC50) was 610 nM. Take `C[C@H](NC(=O)C(C)(C)Oc1ccccn1)[C@@H](Cc1ccc(Cl)cc1)c1ccccc1` [N-[(1S,2S)-3-(4-chlorophenyl)-1-methyl-2-phenyl-propyl]-2-(2-pyridyloxy)-2-methylpropanamide]: the IC50 is 88 nM. For `C[C@H](NC(=O)C(C)(C)Oc1cccc(Cl)c1)[C@@H](Cc1ccc(Cl)cc1)c1ccccc1` [N-[(1S,2S)-3-(4-chlorophenyl)-1-methyl-2-phenylpropyl]-2-(3-chlorophenyloxy)-2-methylpropanamide], the IC50 was 190 nM.

For the compound `C[C@H](NC(=O)C(C)(C)Oc1cccc(F)c1)[C@@H](Cc1ccc(Cl)cc1)c1ccccc1` [N-[(1S,2S)-3-(4-chlorophenyl)-1-methyl-2-phenylpropyl]-2-(3-fluorophenyloxy)-2-methylpropanamide], the IC50 was 290 nM. For `C[C@H](NC(=O)C(C)(C)Oc1ccc(Cl)cn1)[C@@H](Cc1ccc(Cl)cc1)c1ccccc1` [N-[(1S,2S)-3-(4-chlorophenyl)-1-methyl-2-phenylpropyl]-2-[(5-chloro-2-pyridin-2-yl)oxy]-2-methylpropanamide], the IC50 amounted to 100 nM.

As a reminder, the IC50 is the concentration needed to halve the response being measured.
